Consider nine compounds from ChEMBL document CHEMBL1159271, “A reinvestigation of Maprounea triterpenes” (J Nat Prod, 1995).

Test [1] deals with T1, Human immunodeficiency virus type 1 reverse transcriptase (Human immunodeficiency virus 1, UniProt Q72547). Description: Inhibition of HIV1 recombinant reverse transcriptase by UIC assay.
The target in test [2] is T1, Human immunodeficiency virus type 1 reverse transcriptase. Description: Inhibition of HIV1 recombinant reverse transcriptase by NCI assay.
Test [3] is filed under the species Rattus norvegicus. As to the kind of experiment: Displacement of [3H]phorbol dibutyrate from rat brain membrane. It counts as tissue-based. In general terms: Displacement assays read how much labelled ligand stays bound in the presence of the test substance.

Activity calls are given as the source filed them. The calls are words filed in the database; no cut-off is given here. Where only a bound is given, the exact number is not on record here.

The IC50 is the midpoint of a concentration-inhibition curve. `CC1(C)CC[C@]2(C(=O)O)CC=C3[C@]4(C)CC[C@H]5C(C)(C)C[C@H](O)[C@@H](O)[C@]5(C)[C@H]4CC[C@@]3(C)[C@H]2C1`: the IC50 is 3.4 µM in test [1] and over 100 µM in test [2].

`CC1(C)CC[C@]2(C(=O)O)CC=C3[C@]4(C)CC[C@H]5C(C)(C)[C@@H](O)C[C@@H](O)[C@]5(C)[C@H]4CC[C@@]3(C)[C@H]2C1`: in test [1], the IC50 turned out to be 4.9 µM.

With `CC1(C)CC[C@]2(C(=O)O)CC=C3[C@]4(C)CC[C@H]5C(C)(C)[C@@H](OC(=O)c6ccc(O)cc6)CC[C@]5(C)[C@H]4CC[C@@]3(C)[C@H]2C1`, the IC50 in test [1] turned out to be 10.6 µM; in test [2] it was 200 µM.

On to `CC1(C)CC[C@]2(C(=O)O)CC=C3[C@]4(C)CC[C@H]5C(C)(C)[C@@H](O)[C@H](OC(=O)c6ccc(O)cc6)C[C@]5(C)[C@H]4CC[C@@]3(C)[C@H]2C1`, for which the values for the half-maximal inhibitory concentration (IC50) in test [1] and in test [2] were 52 µM and over 200 µM, respectively.

As to `CC1(C)CC[C@]2(C(=O)O)CC=C3[C@]4(C)CC[C@H]5C(C)(C)[C@@H](OC(=O)c6ccc(O)cc6)[C@H](O)C[C@]5(C)[C@H]4CC[C@@]3(C)[C@H]2C1`, the concentration for half-maximal inhibition (IC50) is 14.4 µM in test [1] and over 200 µM in test [2].

Regarding `CC1(C)CC[C@]2(C(=O)O)CC=C3[C@]4(C)CC[C@H]5C(C)(C)[C@@H](OC(=O)c6ccc(O)cc6)[C@H](OC(=O)c6ccc(O)cc6)C[C@]5(C)[C@H]4CC[C@@]3(C)[C@H]2C1`, the IC50 in test [1] amounted to 7.9 µM; in test [2], 60 µM.

Take `CC1(C)CC[C@]2(C(=O)O)CC=C3[C@]4(C)CC[C@H]5C(C)(C)[C@@H](OC(=O)c6ccc(O)cc6)C[C@@H](O)[C@]5(C)[C@H]4CC[C@@]3(C)[C@H]2C1`: the outcome in test [3] was Active. For the same compound, the concentration for half-maximal inhibition (IC50) was 3.7 µM in test [1] and over 100 µM in test [2].

Take `CC1(C)CC[C@]2(C(=O)O)CC=C3[C@]4(C)CC[C@H]5C(C)(C)[C@@H](OC(=O)/C=C/c6ccc(O)cc6)CC[C@]5(C)[C@H]4CC[C@@]3(C)[C@H]2C1`: the concentration for half-maximal inhibition (IC50) in test [1] was 11.5 µM; in test [2], 60 µM.

For `CC1(C)CC[C@]2(C(=O)O)CC=C3[C@]4(C)CC[C@H]5C(C)(C)[C@H](O)[C@@H](OC(=O)c6ccc(O)cc6)C[C@]5(C)[C@H]4CC[C@@]3(C)[C@H]2C1`, the IC50 in test [1] amounted to 15 µM; in test [2] it was 40 µM.
